In assay [1] the test system is Haemonchus contortus larval stage 4, isolate with a resistance to benzimidazoles and ivermectin and anthelmintic-sensitive isolate. The assay is described as follows: Resistance-breaking activity against Haemonchus contortus L4 in vitro, resistant isolate compared with sensitive isolate. Format: cell-based. The following applies: isolate resistant to benzimidazoles and ivermectin vs sensitive isolate. On the procedure: Anthelmintic resistance-breaking effects of compounds of this invention were tested in vitro using larval stage 4 (“L4”) of the parasitic nematode species Haemonchus contortus (Barber's pole worm in ruminants). One isolate of Haemonchus contortus with a resistance to benzimidazoles and ivermectin was tested in comparison to the anthelmintic-sensitive isolate of Haemonchus contortus. When conducting these experiments, various concentrations of the compounds were incubated in 96-well microtiter plates. Parasites were then distributed at 20 larvae per well. The anthelmintic effects were classified by microscopic examination. The microscopic examination included assessing mortality, damage, motility, progression of development, and neutral red uptake by the larvae in comparison to a DMSO-control and standard anthelmintics. The anthelmintic effects were defined by the minimum effective concentration (“MEC”).

In assay [2] the test system is Haemonchus contortus. The assay is described as follows: Efficacy against Haemonchus contortus in jirds. Format: in vivo, jirds (Meriones unguiculatus). The note with it: 72 h, read-out: % Reduction in H. In outline:
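Jirds orally infected with ~750-3,000 H. contortus L3 larvae were dosed once, orally or subcutaneously, at 2, 10 and/or 50 mg/kg on day 10 post-infection. Stomach larval burden was counted at necropsy 3 days post-treatment; efficacy is the reduction of mean count versus untreated infected controls.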

In assay [3] the test system is A. galli (intestinal roundworm of chicken) larval stage 3; O. dentatum (nodular worm of swine) larval stages 3 and 4. The assay is described as follows: Activity against Ascaridia galli and Oesophagostomum dentatum larvae in vitro (minimum effective concentration). The format is cell-based.
Assay [4] deals with Haemonchus contortus. The assay is described as follows: Efficacy against Haemonchus contortus in sheep. Format: in vivo. The following applies: oral, single treatment, worm burden in abomasum 7 days after treatment. On the procedure: Anthelmintic effects of compounds of this invention were tested in vivo using Haemonchus contortus in sheep. The sheep were orally infected with approximately 5,000 third-stage larvae of Haemonchus contortus. Thirty-five days after infection, the sheep in the treatment groups were treated once orally at a dose of 2, 5, 10, and/or 50 mg per kg bodyweight. Seven days after treatment, the sheep were necropsied, and the worm burden in the abomasum was determined. The efficacy was defined as the reduction of the mean worm count in the infected sheep of the treatment groups in comparison to the infected sheep in the untreated negative control group.

Where [5] appears, read: read-out: MEC (minimum effective concentration) against one or more of the tested nematodes, in vitro, one or more of A. galli L3, O. dentatum L3, L4, threshold 1 μM.
Setting [6] is: read-out: MEC (minimum effective concentration) against one or more of the tested nematodes, in vitro, one or more of A. galli L3, O. dentatum L3, L4, threshold 7 μM.
Setting [7] is: read-out: MEC (minimum effective concentration) against two or more of the tested nematodes, in vitro, two or more of A. galli L3, O. dentatum L3, L4, threshold 1 μM.

Like-named read-outs stand apart in the source and are kept apart here. Some results are limits rather than exact numbers.

For `O=C(CCN1CCC(c2ccc(Oc3ccccc3)cc2)CC1)N1CCC(Oc2ccc([N+](=O)[O-])c(C(F)(F)F)c2)CC1` [Example 45, 1-[4-(4-nitro-3-trifluoromethyl-phenoxy)-piperidin-1-yl]-3-[4-(4-phenoxy-phenyl)-piperidin-1-yl]-propan-1-one], the “activity (MEC) against the resistant versus the sensitive isolate of Haemonchus contortus” value in assay [1] was “the same activity against the resistant and the sensitive isolate”. The inhibition in vivo at 50 mg/kg in assay [2] (po) and in assay [2] (sc) was 94% each time.
As to `O=C(CCCN1CCN(c2ccc(C(F)(F)F)cc2)CC1)N1CCC(Nc2ccc(SC(F)(F)F)cc2)CC1` [Example 48, 4-[4-(4-trifluoromethyl-phenyl)-piperazin-1-yl]-1-[4-(4-trifluoromethylsulfanyl-phenylamino)-piperidin-1-yl]-butan-1-one], the minimal effective concentration was below 1 µM in assay [3] (setting [5]), below 7 µM in assay [3] (setting [6]) and below 1 µM in assay [3] (setting [7]). Also, the “activity (MEC) against the resistant versus the sensitive isolate of Haemonchus contortus” value in assay [1] was “the same activity against the resistant and the sensitive isolate”. For the same compound, the results for the inhibition in vivo at 10 mg/kg in assay [2] (po) and in assay [2] (sc) were 99% and 92%, respectively.
As for `CC(CN1CCN(c2ccc(C(F)(F)F)cc2)CC1)C(=O)N1CCC(Nc2ccc([N+](=O)[O-])c(C(F)(F)F)c2)CC1` (stereo not drawn) [Example 64, 2-methyl-1-[4-(4-nitro-3-trifluoromethyl-phenylamino)-piperidin-1-yl]-3-[4-(4-trifluoromethyl-phenyl)-piperazin-1-yl]-propan-1-one], the minimal effective concentration is below 1 µM in assay [3] (setting [5]), below 7 µM in assay [3] (setting [6]) and below 1 µM in assay [3] (setting [7]). In addition, in assay [4] (10 mg/kg), the “% Reduction in H.” value came to 75%. Moreover, in assay [1], the “activity (MEC) against the resistant versus the sensitive isolate of Haemonchus contortus” value was “the same activity against the resistant and the sensitive isolate”. Moreover, the inhibition in vivo at 50 mg/kg in assay [2] (po) and in assay [2] (sc) was 100% throughout.
`N#Cc1ccc(NC2CCN(C(=O)CCN3CCN(c4ccc(Cl)cc4)CC3)CC2)cc1C(F)(F)F` [Example 325]: the minimal effective concentration in assay [3] (setting [7]) is below 1 µM. Further, in assay [4] (50 mg/kg), the “% Reduction in H.” value was 96%. The “activity (MEC) against the resistant versus the sensitive isolate of Haemonchus contortus” value in assay [1] was “the same activity against the resistant and the sensitive isolate”. Also, the inhibition in vivo at 50 mg/kg in assay [2] (po) was determined as 92%; in assay [2] (sc), 97%.

These data come from US9096524B2, “Anthelmintic agents and their use” (Intervet International B.V., priority 2009, dated 2015).
